From patent publication US6268181A, “Methods for producing a potentiator of Bacillus pesticidal activity” (Valent BioSciences, Corporation, priority 1998, dated 2001)

Experiments:
Spodoptera exigua [1] = assay: Spodoptera exigua micro-bioassay (potentiation of Bt Cry protein by Ia); assay type: in vivo
Description: Activity is monitored by a Spodoptera exigua micro-bioassay, and purity is determined by capillary electrophoresis. […] The trays containing the various samples are air dried. Two to four 2nd or early 3rd instar Spodoptera exigua are added to the wells containing the dried sample. The wells are sealed with mylar poked with holes and are incubated for 2-3 days at 30° C. Degree of stunting and percent mortality are then recorded. Typically, 5 replicate wells are run for each sample.
*Mortality = # insects dead/# total insects after 2 days
.dagger.Stunt score is defined by the average size of the live insect
larvae at the end of the bioassay: 4.0 = untreated control, 3.0 = 75% size
of untreated control, 2.0 = 50% size of untreated control, 1.0 = 25% size
of untreated control, 0.0 = no growth or size unchanged from start of […]

[2] = Stability of Ia determined by bioassay; assay type: physicochemical
Description: Activity is monitored by a Spodoptera exigua micro-bioassay, and purity is determined by capillary electrophoresis. Sample consisting of 50 μl of Ia and 50 μl of CryIA(c) protein (15 μg/ml) purified from BIOBIT™ FC (100 μl), is applied to individual wells of a jelly tray containing 500 μl of solidified artificial insect diet. The trays containing the various samples are air dried. Two to four 2nd or early 3rd instar Spodoptera exigua are added to the wells containing the dried sample. The wells are sealed with mylar poked with holes and are incubated for 2-3 days at 30° C. Degree of stunting and percent mortality are then recorded. Typically, 5 replicate wells are run for each sample.
Further, it is stable when subjected to direct sunlight for at least 10 hours. Ia is stable at pH 2 for 3 days, but unstable at pH 12.

[3] = Solubility of the active compound; assay type: physicochemical
Spodoptera exigua [4] = assay: Diet incorporation bioassay, third instar Spodoptera exigua; assay type: in vivo
Description: (§1) B.t.k. activity is determined by an artificial diet incorporation bioassay using third instar Spodoptera exigua larvae, second instar Helicoverpa zea larvae, third instar Spodoptera frugiperda larvae, second instar Heliothis virescens larvae, third instar Trichoplusia ni larvae, third instar Pseudoplusia includens larvae, third instar Plutella xylostella larvae, third instar Spodoptera littoralis, and third instar Mamestra brassicae larvae.
(§2) To determine the level of potentiation by adding Ia to B.t. products, and establish the range of insects that are affected, diet incorporation bioassays are performed. In the experiments with high concentrations of Ia against Spodoptera exigua (7.4-23.7 g Ia/BIU), purified Ia (70% active ingredient, 30% acetate counter ion) is used to potentiate BIOBIT™ FC (FC represents flowable concentrate). […] S. littoralis and M. brassicae are tested using FLORBAC™ HPWP and Ia.
(§3) The various B.t. products are weighed and Ia is added to give 0.1 to 237 g Ia/BIU. The volume is adjusted with 0.1% Tween™. The samples are sonicated for 1 minute and then diluted to final volume. Neat samples (without Ia) and reference substances are prepared as well. Reference substances include B.t.k.
(§4) Standard artificial diet composed of water, agar, sugar, casein, wheat germ, methyl paraben, sorbic acid, linseed oil, cellulose, salts, and vitamins are prepared in a 20 L heated kettle. This provides enough diet to test 10 to 12 samples with seven different concentrations of each test substance. The B.t. solutions are serially diluted to give 16 ml aliquots. Each aliquot is added to 184 g of molten diet. The mixture is subsequently homogenized and then poured into a plastic tray bearing 40 individual cells. Three control trays are prepared for each batch of diet. Once the diet has cooled and solidified, one insect of a known age (2-3 instar) is added to each cell, and the trays are covered with a perforated sheet of clear mylar. The trays are placed on racks and incubated for four days at 28° C. and 65% relative humidity.
(§5) After four days, insect mortality is rated. […] Percent mortality is calculated and the data is analyzed via parallel probit analysis. LC50 s, LC90 s, the slope of the regression lines, coefficient of variation, and potencies are estimated. Samples are run a minimum of 3 times or until three potencies are within 20% of a calculated mean for each sample. To calculate the increase in activity associated with each concentration of Ia, the LC50 of the B.t./Ia sample is corrected to reflect the amount of B.t. in the sample. The Lc50 s of the paired neat samples are divided by the corrected LC50 values to give the fold reduction in LC50 associated with Ia.
The potentiation of various produces on Spodoptera exigua by Ia is determined using diet incorporation bioassays described supra. Ia/B.t. product mixture is incorporated into an agar-based wheat germ casein diet. The insects are placed on the diet for four days and held at 28° C. Mortality is recorded and analyzed using probit analysis. LC50, LC90 and potency are calculated from matched product lacking Ia. The results shown in Table V indicate that Ia potentiate various B.t.k. and B.t.a. products obtained from various sources. The B.t. strains contained in these products are described in Section 5.2., supra.

Spodoptera frugiperda = assay: Diet incorporation bioassay, third instar Spodoptera frugiperda; assay type: in vivo; conditions: BIOBIT HPWP
Description: as §1, §2, §3, §4, §5

Trichoplusia ni = assay: Diet incorporation bioassay, third instar Trichoplusia ni; assay type: in vivo; conditions: BIOBIT HPWP
Description: as §1, §2, §3, §4, §5

Pseudoplusia includens = assay: Diet incorporation bioassay, third instar Pseudoplusia includens; assay type: in vivo; conditions: BIOBIT HPWP
Description: as §1, §2, §3, §4, §5

Plutella xylostella = assay: Diet incorporation bioassay, third instar Plutella xylostella; assay type: in vivo; conditions: BIOBIT HPWP
Description: as §1, §2, §3, §4, §5

Helicoverpa zea = assay: Diet incorporation bioassay, second instar Helicoverpa zea; assay type: in vivo; conditions: BIOBIT HPWP, 3.2 g Ia per BIU
Description: as §1, §2
(§6) The various B.t. products are weighed and Ia is added to give 0.1 to 237 g Ia/BIU. The volume is adjusted with 0.1% Tween™. The samples are sonicated for 1 minute and then diluted to final volume. Neat samples (without Ia) and reference substances are prepared as well. Reference substances include B.t.k. […]
(§7) After four days, insect mortality is rated. […] Percent mortality is calculated and the data is analyzed via parallel probit analysis. […]

Heliothis virescens = assay: Diet incorporation bioassay, second instar Heliothis virescens; assay type: in vivo; conditions: BIOBIT HPWP, 3.2 g Ia per BIU
Description: as §1, §2, §6, §7

Lobesia bothrana = Lobesia bothrana assay (larvae drinking dilution, grape berries); assay type: in vivo; conditions: BIOBIT HPWP, 2.0 g Ia per BIU
Description: The following procedure is used to assay for Lobesia bothrana. Vine grapes attacked by Lobesia bothrana are collected in an unsprayed field and larva is removed. A dilution series of Ia (250 μg/ml, 500 μg/ml, and 1000 μg/ml) is made in water. One larva is put in the middle of the petri dish. If the larva is observed to drink, it is moved into a petri dish with freshly cut grape berries. The larvae are stored at 22° C. for 3-4 days.

Spodoptera littoralis = assay: Diet incorporation bioassay, third instar Spodoptera littoralis; assay type: in vivo; conditions: FLORBAC HPWP, 2.0 g Ia per BIU
Description: as §1, §2, §6, §7

Mamestra brassicae = assay: Diet incorporation bioassay, third instar Mamestra brassicae; assay type: in vivo; conditions: FLORBAC HPWP, 2.0 g Ia per BIU
Description: as §1, §2, §6, §7

## NC(=O)NCC(NC(=O)C(O)C(O)C(N)C(O)CC(O)C(N)CO)C(N)=O (centres unmarked) [Ia]
Spodoptera exigua [1]; Bacillus thuringiensis subsp. kurstaki and aizawai crystal delta-endotoxin proteins
  potentiation of crystal delta-endotoxin: potentiate the activity
Spodoptera exigua [1]; CryIC inclusions
  level of potentiation: 250 fold
Spodoptera exigua [1]; CryII and CryIC inclusions
  potentiation of pesticidal activity: also potentiated
Spodoptera exigua [1]; CryII inclusions
  potentiation: 125 fold
Spodoptera exigua [1]; Ia alone, no Bt protein, after 2 days
  Mortality: 0/5
Spodoptera exigua [1]; Ia alone, no Bt protein, 4.0 = untreated control, 0.0 = no growth
  Stunt Score: 4.0
Spodoptera exigua [1]; formulated B.t.k., isolated crystals, full-length or truncated CryIA proteins
  potentiation of pesticidal activity: all potentiated
Spodoptera exigua [1]; full-length CryIA(c)
  level of potentiation: approximately 320 fold
Spodoptera exigua [1]; individual truncated CryIA(a), (b), and (c) proteins
  potentiation of pesticidal activity: potentiate the activity
Spodoptera exigua [1]; truncated CryIA proteins, CryII and CryIC inclusions
  level of potentiation: 100-200 fold
Spodoptera exigua [1]; without Cry protein
  activity of Ia alone: inactive alone
[2]; autoclaving (>190C)
  stability: loses all activity
[2]; boiling for 5 minutes
  stability: stable
[2]; direct sunlight for at least 10 hours
  stability: stable
[2]; exposed to periodic acid or concentrated HCl
  stability: lose all activity
[2]; pH 2 for 3 days
  stability: stable
[2]; pH 12
  stability: unstable
[3]; organic solvents
  solubility in organic solvents: not soluble in organic solvents
[3]; water
  water solubility: water soluble
Spodoptera exigua [4]; BIOBIT FC, 7.4 g Ia per BIU, purified Ia
  Increase in activity, Fold reduction in LC50: 13 Fold
Spodoptera exigua [4]; BIOBIT FC, 15 g Ia per BIU, purified Ia
  Increase in activity, Fold reduction in LC50: 26 Fold
Spodoptera exigua [4]; BIOBIT FC, 30 g Ia per BIU, purified Ia
  Increase in activity, Fold reduction in LC50: 34 Fold
Spodoptera exigua [4]; BIOBIT FC, 118 g Ia per BIU, purified Ia
  Increase in activity, Fold reduction in LC50: 59 Fold
Spodoptera exigua [4]; BIOBIT FC, 237 g Ia per BIU, purified Ia
  Increase in activity, Fold reduction in LC50: 79 Fold
Spodoptera exigua [4]; BIOBIT HPWP, 0.1 g Ia per BIU
  Increase in activity, Fold reduction in LC50: 1.5 Fold
Spodoptera exigua [4]; BIOBIT HPWP, 0.2 g Ia per BIU
  Increase in activity, Fold reduction in LC50: 1.7 Fold
Spodoptera exigua [4]; BIOBIT HPWP, 2.0 g Ia per BIU
  Increase in activity, Fold reduction in LC50: 4.3 Fold
Spodoptera exigua [4]; BIOBIT HPWP, 4.0 g Ia per BIU
  Increase in activity, Fold reduction in LC50: 7.5 Fold
Spodoptera frugiperda; 0.2 g Ia per BIU
  Increase in activity, Fold reduction in LC50: 2.2 Fold
Spodoptera frugiperda; 0.8 g Ia per BIU
  Increase in activity, Fold reduction in LC50: 3.9 Fold
Spodoptera frugiperda; 2.0 g Ia per BIU
  Increase in activity, Fold reduction in LC50: 7.2 Fold
Spodoptera frugiperda; 4.0 g Ia per BIU
  Increase in activity, Fold reduction in LC50: 11.6 Fold
Trichoplusia ni; 0.1 g Ia per BIU
  Increase in activity, Fold reduction in LC50: 1.1 Fold
Trichoplusia ni; 0.2 g Ia per BIU
  Increase in activity, Fold reduction in LC50: 1.2 Fold
Trichoplusia ni; 2.0 g Ia per BIU
  Increase in activity, Fold reduction in LC50: 2.0 Fold
Trichoplusia ni; 4.0 g Ia per BIU
  Increase in activity, Fold reduction in LC50: 3.1 Fold
Pseudoplusia includens; 0.1 g Ia per BIU
  Increase in activity, Fold reduction in LC50: 0 Fold
Pseudoplusia includens; 0.2 g Ia per BIU
  Increase in activity, Fold reduction in LC50: 1.2 Fold
Pseudoplusia includens; 0.8 g Ia per BIU
  Increase in activity, Fold reduction in LC50: 2.1 Fold
Pseudoplusia includens; 2.0 g Ia per BIU
  Increase in activity, Fold reduction in LC50: 2.4 Fold
Pseudoplusia includens; 4.0 g Ia per BIU
  Increase in activity, Fold reduction in LC50: 3.4 Fold
Plutella xylostella; 0.2 g Ia per BIU
  Increase in activity, Fold reduction in LC50: 1.6 Fold
Plutella xylostella; 0.8 g Ia per BIU
  Increase in activity, Fold reduction in LC50: 1.3 Fold
Plutella xylostella; 2.0 g Ia per BIU
  Increase in activity, Fold reduction in LC50: 1.4 Fold
Plutella xylostella; 4.0 g Ia per BIU
  Increase in activity, Fold reduction in LC50: 1.9 Fold
Helicoverpa zea
  Increase in activity, Fold reduction in LC50: 12.6 Fold
Heliothis virescens
  Increase in activity, Fold reduction in LC50: 4.2 Fold
Lobesia bothrana
  Increase in activity, Fold reduction in LC50: 3.0 Fold
Spodoptera littoralis
  Increase in activity, Fold reduction in LC50: 8.6 Fold
Mamestra brassicae
  Increase in activity, Fold reduction in LC50: 4.9 Fold
